Assays:
Assay in all cases: relative viability (nuclei count vs DMSO), 5 days (fraction); higher = more cells survive
[1] = system: NCI-H1975
In short: (§1)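 Lung cancer cell lines in 1536-well plates were dosed by pin tool the day after seeding, either with one drug alone or with a fixed anchor-drug dose plus five library-drug doses (not always all listed) in √10 steps. After 5 days, cells were fixed and their nuclei stained in one step (final 0.05% Triton X-100, 1% formaldehyde, 1 ug/ml Hoechst), then counted on 4× images. Relative viability is the nuclei count in treated wells divided by that in vehicle wells. Values are medians of duplicate plates.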

[2] = system: HCC-827
In short: as §1

[3] = system: NCI-H23
In short: as §1

[4] = system: HARA
In short: as §1

[5] = system: 201T
In short: as §1

[6] = system: HCC-15
In short: as §1

[7] = system: A-427
In short: as §1

[8] = system: NCI-H358
In short: as §1

[9] = system: NCI-H838
In short: as §1

[10] = system: BEN
In short: as §1

[11] = system: COR-L23
In short: as §1

[12] = system: NCI-H1650
In short: as §1

[13] = system: NCI-H1792
In short: as §1

[14] = system: NCI-H650
In short: as §1

[15] = system: HCC-44
In short: as §1

[16] = system: NCI-H1437
In short: as §1

[17] = system: NCI-H441
In short: as §1

[18] = system: NCI-H596
In short: as §1

[19] = system: EKVX
In short: as §1

[20] = system: SK-MES-1
In short: as §1

Cc1sc2c(c1C)C(c1ccc(Cl)cc1)=N[C@@H](CC(=O)OC(C)(C)C)c1nnc(C)n1-2 [JQ1] + C[C@@H](Oc1cc(-c2cnn(C3CCNCC3)c2)cnc1N)c1c(Cl)ccc(F)c1Cl [Crizotinib] (partner 1 µM)
relative viability ([1]; first compound 0.04 µM): 0.891
relative viability ([1]; first compound 0.1265 µM): 0.675
relative viability ([1]; first compound 0.4 µM): 0.483
relative viability ([1]; first compound 1.265 µM): 0.3
relative viability ([1]; first compound 4 µM): 0.235
relative viability ([2]; first compound 0.04 µM): 1.01
relative viability ([2]; first compound 0.4 µM): 0.663
relative viability ([2]; first compound 1.265 µM): 0.672
relative viability ([2]; first compound 4 µM): 0.668
relative viability ([3]; first compound 0.04 µM): 0.441
relative viability ([3]; first compound 0.1265 µM): 0.61
relative viability ([3]; first compound 0.4 µM): 0.304
relative viability ([3]; first compound 1.265 µM): 0.163
relative viability ([3]; first compound 4 µM): 0.154
relative viability ([4]; first compound 0.04 µM): 0.945
relative viability ([4]; first compound 0.1265 µM): 0.714
relative viability ([4]; first compound 0.4 µM): 0.337
relative viability ([4]; first compound 1.265 µM): 0.366
relative viability ([4]; first compound 4 µM): 0.308
relative viability ([5]; first compound 0.04 µM): 1.05
relative viability ([5]; first compound 0.1265 µM): 0.882
relative viability ([5]; first compound 0.4 µM): 0.93
relative viability ([5]; first compound 1.265 µM): 0.73
relative viability ([5]; first compound 4 µM): 0.602
relative viability ([6]; first compound 0.04 µM): 0.762
relative viability ([6]; first compound 0.4 µM): 0.75
relative viability ([6]; first compound 1.265 µM): 0.544
relative viability ([6]; first compound 4 µM): 0.441
relative viability ([7]; first compound 0.04 µM): 0.997
relative viability ([7]; first compound 0.1265 µM): 0.947
relative viability ([7]; first compound 0.4 µM): 0.658
relative viability ([7]; first compound 1.265 µM): 0.691
relative viability ([7]; first compound 4 µM): 0.516
relative viability ([8]; first compound 0.04 µM): 0.498
relative viability ([8]; first compound 0.1265 µM): 0.43
relative viability ([8]; first compound 0.4 µM): 0.473
relative viability ([8]; first compound 1.265 µM): 0.228
relative viability ([8]; first compound 4 µM): 0.25
relative viability ([9]; first compound 0.04 µM): 0.814
relative viability ([9]; first compound 0.1265 µM): 0.546
relative viability ([9]; first compound 0.4 µM): 0.415
relative viability ([9]; first compound 1.265 µM): 0.27
relative viability ([9]; first compound 4 µM): 0.172
relative viability ([10]; first compound 0.04 µM): 0.67
relative viability ([10]; first compound 0.1265 µM): 0.84
relative viability ([10]; first compound 0.4 µM): 0.51
relative viability ([10]; first compound 1.265 µM): 0.335
relative viability ([10]; first compound 4 µM): 0.229
relative viability ([11]; first compound 0.04 µM): 0.608
relative viability ([11]; first compound 0.1265 µM): 0.381
relative viability ([11]; first compound 0.4 µM): 0.46
relative viability ([11]; first compound 1.265 µM): 0.248
relative viability ([11]; first compound 4 µM): 0.12
relative viability ([12]; first compound 0.04 µM): 0.948
relative viability ([12]; first compound 0.1265 µM): 0.609
relative viability ([12]; first compound 0.4 µM): 0.735
relative viability ([12]; first compound 1.265 µM): 0.126
relative viability ([12]; first compound 4 µM): 0.141
relative viability ([13]; first compound 0.04 µM): 0.968
relative viability ([13]; first compound 0.4 µM): 0.948
relative viability ([13]; first compound 1.265 µM): 0.768
relative viability ([13]; first compound 4 µM): 0.644
relative viability ([14]; first compound 0.04 µM): 0.7
relative viability ([14]; first compound 0.1265 µM): 0.445
relative viability ([14]; first compound 0.4 µM): 0.343
relative viability ([14]; first compound 1.265 µM): 0.174
relative viability ([14]; first compound 4 µM): 0.195
relative viability ([15]; first compound 0.04 µM): 0.822
relative viability ([15]; first compound 0.1265 µM): 0.623
relative viability ([15]; first compound 0.4 µM): 0.397
relative viability ([15]; first compound 1.265 µM): 0.277
relative viability ([15]; first compound 4 µM): 0.243
relative viability ([16]; first compound 0.04 µM): 0.849
relative viability ([16]; first compound 0.1265 µM): 0.896
relative viability ([16]; first compound 0.4 µM): 0.666
relative viability ([16]; first compound 1.265 µM): 0.29
relative viability ([16]; first compound 4 µM): 0.248
relative viability ([17]; first compound 0.04 µM): 0.813
relative viability ([17]; first compound 0.1265 µM): 0.616
relative viability ([17]; first compound 0.4 µM): 0.713
relative viability ([17]; first compound 1.265 µM): 0.297
relative viability ([17]; first compound 4 µM): 0.221
relative viability ([18]; first compound 0.04 µM): 0.977
relative viability ([18]; first compound 0.1265 µM): 0.85
relative viability ([18]; first compound 0.4 µM): 0.472
relative viability ([18]; first compound 1.265 µM): 0.498
relative viability ([18]; first compound 4 µM): 0.432
relative viability ([19]; first compound 0.04 µM): 0.713
relative viability ([19]; first compound 0.1265 µM): 0.749
relative viability ([19]; first compound 0.4 µM): 0.938
relative viability ([19]; first compound 1.265 µM): 0.707
relative viability ([19]; first compound 4 µM): 0.489
relative viability ([20]; first compound 0.04 µM): 0.873
relative viability ([20]; first compound 0.1265 µM): 0.77
relative viability ([20]; first compound 0.4 µM): 0.672
relative viability ([20]; first compound 1.265 µM): 0.467
relative viability ([20]; first compound 4 µM): 0.295

From the supplement of paper PMC10307832
